Reference: patent US20240374691A1, “GLP-1R AGONISTS FOR USE IN A TREATMENT OF NEUROLOGIAL IMPAIRMENT ASSOCIATED WITH VIRAL INFECTION” (Neuraly, Inc., priority 2021, published 2024)
Like-named read-outs stand apart in the source and are kept apart here.

Tests used:
primary microglia = test: Pro-inflammatory cytokine production by primary microglia in vitro (ELISA); type: cell-based; details: NLY01 vs PBS
Experimental: Production of pro-inflammatory cytokines is a marker for microglial activation. Chronic microglial activation is pathogenic. […] Cytokine levels were determined using ELISA. Bars indicate mean±s.e.m. (n=3).

activated microglia = test: Microglial activation in vivo after intrastriatal α-synuclein PFF injection; design: species or system C57BL6 mice; details: 3 mg/kg s.c. twice a week for 5 months, PFF-injected mice, FIGS. 2A-2B
Excerpt: Mice were perfused and brain tissues collected to allow analysis of activated microglia and cytokine levels following treatment.

[1] = system: Tg models of Alzheimer's Disease; test: Tg models of Alzheimer's Disease (AD); type: in vivo
[2] = in vivo
[3] = in vivo; remark: listed apart in the source
[4] = in vivo; cited from earlier work

| Substance | cytokine production by microglia (primary microglia; absence of activation) | pro-inflammatory cytokine levels (C1q, IL1α, TNF-α, IL1β) (primary microglia; activated microglia, FIGS. 1A-1D) | Iba-1+ activated microglia in the brain (Iba-1 intensity, microglia density) (activated microglia) | amyloid aggregation and tau formation [1] | memory impairment [1] | microglia activation and population of reactive astrocytes in the AD brain [1] | half-life [2] [h] | blood-brain barrier traversal [3] | half-life [4] |
| --- | --- | --- | --- | --- | --- | --- | --- | --- | --- |
| NLY01: long-acting PEGylated form of exenatide; PEG 50,000 Da site-specifically conjugated to exenatide peptide | not significantly affected | substantially reduced | reduced | reduced | ameliorated | significantly inhibited | 88 | traverses the blood-brain barrier |  |
| Albiglutide: dipeptidyl peptidase-4-resistant glucagon-like peptide-1 dimer fused to human albumin |  |  |  |  |  |  |  |  | four to seven |
